These results are taken from patent US10501414B2, “Indole analogs as 5-oxo-ETE receptor antagonists and method of use thereof” (THE ROYAL INSTITUTION FOR THE ADVANCEMENT OF …, priority 2015, dated 2019).

Values joined by “and” are separate entries in the source; they are usually repeats but may differ in a detail not shown here. Equal values may be shown once.

For the first test, the target named is T1, OXE receptor (Homo sapiens, UniProt Q8TDS5).
T1 construct: Human granulocytes (≥95% neutrophils) are prepared from whole blood; endogenous in cells; host or cells: human granulocytes (≥95% neutrophils) from whole blood
T1 sequence (Q8TDS5 whole entry): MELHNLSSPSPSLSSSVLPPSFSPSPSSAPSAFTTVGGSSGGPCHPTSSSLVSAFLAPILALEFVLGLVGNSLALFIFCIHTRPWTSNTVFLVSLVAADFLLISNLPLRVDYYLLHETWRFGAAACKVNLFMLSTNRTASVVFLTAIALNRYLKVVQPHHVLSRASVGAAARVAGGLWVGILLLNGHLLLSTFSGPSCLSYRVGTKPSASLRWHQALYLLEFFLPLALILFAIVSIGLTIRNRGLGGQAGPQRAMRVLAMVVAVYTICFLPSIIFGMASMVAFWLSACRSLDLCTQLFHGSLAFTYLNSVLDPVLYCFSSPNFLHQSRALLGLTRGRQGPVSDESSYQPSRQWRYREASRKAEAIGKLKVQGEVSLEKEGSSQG
Nature of the test: Calcium mobilization in human granulocytes (inhibition of 5-oxo-ETE-induced calcium mobilization). The class given is cell-based. As to conditions: 5-oxo-ETE-induced calcium mobilization. The protocol: Evaluation of Antagonist Activity: Calcium Mobilization in Human Granulocytes
Human granulocytes (≥95% neutrophils) are prepared from whole blood using Dextran 500 to remove red blood cells, followed by centrifugation over Ficoll-Paque to remove mononuclear cells and hypotonic lysis of any remaining red blood cells. After centrifugation the granulocytes are suspended in Ca^++/Mg^++-free phosphate-buffered saline (PBS^−). Granulocytes (10^7 cells/ml) are incubated with the acetoxymethyl ester of indo-1 (1 μM) for 30 min, followed by washing twice with PBS^− and resuspension in the same medium to obtain a final cell concentration of 3.22×10^6 cells/ml. Five minutes prior to commencing data acquisition, Ca^++ and Mg^++ are added to give final concentrations of 1.8 and 1 mM, respectively. Calcium measurements are performed at 37° C. using a spectrofluorometer equipped with a temperature-controlled cuvette holder and a magnetic stirrer. The excitation and emission wavelengths are 331 nm and 410 nm, respectively. Following stabilization of the baseline, fluorescence is measured for 1 min, prior to the addition of either vehicle or various concentrations of a potential 5-oxo-ETE antagonist. Two min later, 5-oxo-ETE (10 nM) is added, followed 1 min later by digitonin (final concentration 0.1%). Data acquisition is terminated after a further 0.5 min. Fmax is determined from fluorescence measurements after the addition of digitonin, whereas Fmin is determined after determination of autofluorescence as described in the literature. A dissociation constant of 250 nM for the indo-1/Ca^++ complex is used to calculate [Ca^++]i. The % inhibition of 5-oxo-ETE-induced calcium mobilization by the antagonist is calculated as follows: Inhibition (%)=(1−(Caant/Ca^++veh))×100 where Caant is the increase in cytosolic calcium levels induced by 5-oxo-ETE (10 nM) following the addition of a potential antagonist, whereas Caveh is the response induced by 5-oxo-ETE following addition of vehicle alone.
In general terms: Calcium flux is commonly read through the fluorescence of an indicator in the cells.
On to `COc1ccccc1CCCCCC(O)c1c(C(=O)C[C@H](C)CC(=O)O)c2cc(Cl)ccc2n1C` (stereo partly shown) [Compound 49M], for which the “antagonist activity / potency in words” value was “antagonists and 5-oxo-ETE-induced calcium mobilization inhibitors”.

Consider `C[C@H](CC(=O)O)CC(=O)c1c(C(O)CCCCCc2ccc(F)cc2)n(C)c2ccc(Cl)cc12` (stereo partly shown) [Compound 54M], for which the “antagonist activity / potency in words” value is “antagonists and 5-oxo-ETE-induced calcium mobilization inhibitors”.

The same test, now with this note: 5-oxo-ETE-induced calcium mobilization; read-out: potency (IC50) in the picomolar range.
With `CC(CC(=O)O)CC(=O)c1c(CCCCCCc2cccc(Cl)c2)n(C)c2ccc(Cl)cc12` (racemic) [Compound 20, 5-(5-chloro-2-(6-(3-chlorophenyl)hexyl)-1-methyl-1H-indol-3-yl)-3-methyl-5-oxopentanoic acid], the 50% inhibitory concentration (IC50) is around 0.033 nM.

For `CC(CC(=O)O)CC(=O)c1c(CCCCCCc2cccc(F)c2)n(C)c2ccc(Cl)cc12` (racemic) [Compound 21, 5-(5-chloro-2-(6-(3-fluorophenyl)hexyl)-1-methyl-1H-indol-3-yl)-3-methyl-5-oxopentanoic acid], the IC50 was around 0.072 nM.

Turning to `COc1cccc(CCCCCCc2c(C(=O)CC(C)CC(=O)O)c3cc(Cl)ccc3n2C)c1` (racemic) [Compound 22, 5-(5-chloro-2-(6-(3-methoxyphenyl)hexyl)-1-methyl-1H-indol-3-yl)-3-methyl-5-oxopentanoic acid], the IC50 was around 0.086 nM.

The same test, now with this note: inhibition of calcium mobilization induced by 5-oxo-ETE (10 nM) in human granulocytes; bracketed figure in cell = n; read-out: IC50.
Consider `CC(CC(=O)O)CC(=O)c1c(CCCCc2ccccc2)n(C)c2ccc(Cl)cc12` (racemic) [Compound 13, methyl 5-(5-chloro-1-methyl-2-(4-phenylbutyl)-1H-indol-3-yl)-3-methyl-5-oxopentanoic acid], for which the IC50 was found to be 38 ± 8 nM.

With `CC(CC(=O)O)CC(=O)c1c(CCCCCCc2cccc(Cl)c2)n(C)c2ccc(Cl)cc12` (racemic) [Compound 20, 5-(5-chloro-2-(6-(3-chlorophenyl)hexyl)-1-methyl-1H-indol-3-yl)-3-methyl-5-oxopentanoic acid], the 50% inhibitory concentration (IC50) amounted to 0.033 ± 0.003 nM.

Regarding `CC(CC(=O)O)CC(=O)c1c(CCCCCCc2cccc(F)c2)n(C)c2ccc(Cl)cc12` (racemic) [Compound 21, 5-(5-chloro-2-(6-(3-fluorophenyl)hexyl)-1-methyl-1H-indol-3-yl)-3-methyl-5-oxopentanoic acid], the IC50 is 0.072 ± 0.007 nM.

Take `COc1cccc(CCCCCCc2c(C(=O)CC(C)CC(=O)O)c3cc(Cl)ccc3n2C)c1` (racemic) [Compound 22, 5-(5-chloro-2-(6-(3-methoxyphenyl)hexyl)-1-methyl-1H-indol-3-yl)-3-methyl-5-oxopentanoic acid]: the IC50 amounted to 0.086 ± 0.017 nM.

With `C[C@H](CC(=O)O)CC(=O)c1c(CCCCCCc2ccccc2F)n(C)c2ccc(Cl)cc12` (single isomer, unassigned) [Compound 48], the IC50 is 0.27 ± 0.06 nM.

On to `C[C@H](CC(=O)O)CC(=O)c1c(CCCCCCc2cccc(F)c2)n(C)c2ccc(Cl)cc12` (single isomer, unassigned) [Compound 51], for which the IC50 is 0.037 ± 0.005 nM.

With `COc1cccc(CCCCCCc2c(C(=O)C[C@H](C)CC(=O)O)c3cc(Cl)ccc3n2C)c1` (single isomer, unassigned) [Compound 52], the IC50 worked out at 0.051 ± 0.007 nM.

As for `C[C@@H](CC(=O)O)CC(=O)c1c(CCCCCCc2ccccc2Cl)n(C)c2ccc(Cl)cc12` (single isomer, unassigned) [Compound 62], the IC50 was 81 ± 34 nM.

As to `C[C@@H](CC(=O)O)CC(=O)c1c(CCCCCCc2ccccc2F)n(C)c2ccc(Cl)cc12` (single isomer, unassigned) [Compound 63], the IC50 came out at 2.9 ± 0.1 nM.

In the case of `COc1ccccc1CCCCCCc1c(C(=O)C[C@@H](C)CC(=O)O)c2cc(Cl)ccc2n1C` (single isomer, unassigned) [Compound 64], the IC50 stood at 54 ± 23 nM.

Regarding `C[C@@H](CC(=O)O)CC(=O)c1c(CCCCCCc2cccc(Cl)c2)n(C)c2ccc(Cl)cc12` (single isomer, unassigned) [Compound 65], the IC50 came out at 0.64 ± 0.1 nM.

`C[C@@H](CC(=O)O)CC(=O)c1c(CCCCCCc2cccc(F)c2)n(C)c2ccc(Cl)cc12` (single isomer, unassigned) [Compound 66]: the half-maximal inhibitory concentration (IC50) came to 1.8 ± 0.3 nM.

Consider `COc1cccc(CCCCCCc2c(C(=O)C[C@@H](C)CC(=O)O)c3cc(Cl)ccc3n2C)c1` (single isomer, unassigned) [Compound 67], for which the IC50 is 50 ± 13 nM.

With `C[C@@H](CC(=O)O)CC(=O)c1c(CCCCCCc2ccc(F)cc2)n(C)c2ccc(Cl)cc12` (single isomer, unassigned) [Compound 69], the IC50 worked out at 4.45 ± 1.05 nM.

With `CC(CC(=O)O)CC(=O)c1c(CCCc2ccccc2)n(C)c2ccc(Cl)cc12` (stereo not shown) [Compound 12, 5-(5-chloro-1-methyl-2-(3-phenylpropyl)-1H-indol-3-yl)-3-methyl-5-oxopentanoic acid, reference compound], the IC50 was 223 ± 18 nM.

In the case of `CC(CC(=O)O)CC(=O)c1c(CCCCCc2ccccc2)n(C)c2ccc(Cl)cc12` (stereo not shown) [Compound 14, 5-(5-chloro-1-methyl-2-(5-phenylpentyl)-1H-indol-3-yl)-3-methyl-5-oxopentanoic acid], the half-inhibitory concentration (IC50) was found to be 11 ± 1 nM.

Turning to `CC(CC(=O)O)CC(=O)c1c(CCCCCCc2ccccc2Cl)n(C)c2ccc(Cl)cc12` (stereo not shown) [Compound 17, 5-(5-chloro-2-(6-(2-chlorophenyl)hexyl)-1-methyl-1H-indol-3-yl)-3-methyl-5-oxopentanoic acid], the IC50 is 0.44 ± 0.13 nM.

For `CC(CC(=O)O)CC(=O)c1c(CCCCCCc2ccccc2F)n(C)c2ccc(Cl)cc12` (stereo not shown) [Compound 18, 5-(5-chloro-2-(6-(2-fluorophenyl)hexyl)-1-methyl-1H-indol-3-yl)-3-methyl-5-oxopentanoic acid], the half-maximal inhibitory concentration (IC50) amounted to 0.41 ± 0.07 nM.

Take `COc1ccccc1CCCCCCc1c(C(=O)CC(C)CC(=O)O)c2cc(Cl)ccc2n1C` (stereo not shown) [Compound 19, 5-(5-chloro-2-(6-(2-methoxyphenyl)hexyl)-1-methyl-1H-indol-3-yl)-3-methyl-5-oxopentanoic acid]: the IC50 was 0.18 ± 0.05 nM.

For the molecule `CC(CC(=O)O)CC(=O)c1c(CCCCCCc2ccc(Cl)cc2)n(C)c2ccc(Cl)cc12` (stereo not shown) [Compound 23, 5-(5-chloro-2-(6-(4-chlorophenyl)hexyl)-1-methyl-1H-indol-3-yl)-3-methyl-5-oxopentanoic acid], the IC50 was found to be 0.63 ± 0.22 nM.

Consider `CC(CC(=O)O)CC(=O)c1c(CCCCCCc2ccc(F)cc2)n(C)c2ccc(Cl)cc12` (stereo not shown) [Compound 24, 5-(5-chloro-2-(6-(4-fluorophenyl)hexyl)-1-methyl-1H-indol-3-yl)-3-methyl-5-oxopentanoic acid], for which the IC50 stood at 0.8 ± 0.24 nM.

With `COc1ccc(CCCCCCc2c(C(=O)CC(C)CC(=O)O)c3cc(Cl)ccc3n2C)cc1` (stereo not shown) [Compound 25, 5-(5-chloro-2-(6-(4-methoxyphenyl)hexyl)-1-methyl-1H-indol-3-yl)-3-methyl-5-oxopentanoic acid], the IC50 turned out to be 0.63 ± 0.08 nM.

`CC(CC(=O)O)CC(=O)c1c(CCCCCCc2cccc(O)c2)n(C)c2ccc(Cl)cc12` (stereo not shown) [Compound 38, 5-(5-chloro-2-(6-(3-hydroxyphenyl)hexyl)-1-methyl-1H-indol-3-yl)-3-methyl-5-oxopentanoic acid]: the IC50 turned out to be 1.9 ± 0.3 nM.

Turning to `C[C@H](CC(=O)O)CC(=O)c1c(CCCCCCc2ccccc2Cl)n(C)c2ccc(Cl)cc12` [Compound 47, (S)-5-(5-chloro-2-(6-(2-chlorophenyl)hexyl)-1-methyl-1H-indol-3-yl)-3-methyl-5-oxopentanoic acid], the IC50 is 0.55 ± 0.19 nM.

Turning to `COc1ccccc1CCCCCCc1c(C(=O)C[C@H](C)CC(=O)O)c2cc(Cl)ccc2n1C` [Compound 49, (S)-5-(5-chloro-2-(6-(2-methoxyphenyl)hexyl)-1-methyl-1H-indol-3-yl)-3-methyl-5-oxopentanoic acid], the IC50 was 0.1 ± 0.02 nM.

In the case of `COc1ccccc1CCCCCC(O)c1c(C(=O)C[C@H](C)CC(=O)O)c2cc(Cl)ccc2n1C` (stereo partly shown) [Compound 49M], the IC50 is 0.58 ± 0.21 nM.

With `C[C@H](CC(=O)O)CC(=O)c1c(C(O)CCCCCc2cccc(Cl)c2)n(C)c2ccc(Cl)cc12` (stereo partly shown) [Compound 50M], the IC50 came out at 0.08 ± 0.02 nM.

Regarding `C[C@H](CC(=O)O)CC(=O)c1c(CCCCCCc2ccc(Cl)cc2)n(C)c2ccc(Cl)cc12` [Compound 53, (S)-5-(5-chloro-2-(6-(4-chlorophenyl)hexyl)-1-methyl-1H-indol-3-yl)-3-methyl-5-oxopentanoic acid], the IC50 was 0.47 ± 0.16 nM.

Take `C[C@H](CC(=O)O)CC(=O)c1c(CCCCCCc2ccc(F)cc2)n(C)c2ccc(Cl)cc12` [Compound 54, (S)-5-(5-chloro-2-(6-(4-fluorophenyl)hexyl)-1-methyl-1H-indol-3-yl)-3-methyl-5-oxopentanoic acid]: the half-inhibitory concentration (IC50) was determined as 0.39 ± 0.09 nM.

For the molecule `C[C@H](CC(=O)O)CC(=O)c1c(C(O)CCCCCc2ccc(F)cc2)n(C)c2ccc(Cl)cc12` (stereo partly shown) [Compound 54M], the IC50 was found to be 1.4 ± 0.4 nM.

Consider `CC(CC(=O)O)CC(=O)c1c(COCCCc2ccccc2)n(C)c2ccc(Cl)cc12` (stereo not shown) [Compound 83, 5-(5-chloro-1-methyl-2-((3-phenylpropoxy)methyl)-1H-indol-3-yl)-3-methyl-5-oxopentanoic acid], for which the IC50 was 0.7 nM.

As for `CC(CC(=O)O)CC(=O)c1c(/C=C/CCCCc2ccccc2)n(C)c2ccc(Cl)cc12` (stereo not shown) [Compound 85, (E)-5-(5-chloro-1-methyl-2-(6-phenylhex-1-en-1-yl)-1H-indol-3-yl)-3-methyl-5-oxopentanoic acid], the IC50 stood at 1.93 ± 0.6 nM.

`CC(CC(=O)O)CC(=O)c1c(CCCCC=Cc2ccccc2)n(C)c2ccc(Cl)cc12` (stereo not shown) [Compound 94, 5-[5-Chloro-1-methyl-2-(6-phenyl-hex-5-enyl)-1H-indol-3-yl]-3-methyl-5-oxopentanoic acid]: the IC50 was found to be 0.65 ± 0.36 nM.

In the case of `C[C@H](CC(=O)O)CC(=O)c1c(CCCC/C=C\c2ccccc2)n(C)c2ccc(Cl)cc12` [Compound 95], the IC50 came out at 0.62 ± 0.29 nM.

Staying with this test, now noted: relative to V230.
For the molecule `CC(CC(=O)O)CC(=O)c1c(CCCc2ccccc2)n(C)c2ccc(Cl)cc12` (stereo not shown) [Compound 12, 5-(5-chloro-1-methyl-2-(3-phenylpropyl)-1H-indol-3-yl)-3-methyl-5-oxopentanoic acid, reference compound], the “reduction of potency compared to V230” value was “about 8 fold”.

One may read the IC50 as the concentration that gives 50% inhibition.
